The text below walks through data of patent US5952321A, “Substituted azetidinones as anti-inflammatory and antidegenerative agents” (Merck & Co., Inc., priority 1996, dated 1999).

Structures are written as SMILES.

The target of the first assay is T1, Human Polymorphonuclear Leukocyte Elastase (Homo sapiens, UniProt P08246).
T1 sequence (P08246 30-267): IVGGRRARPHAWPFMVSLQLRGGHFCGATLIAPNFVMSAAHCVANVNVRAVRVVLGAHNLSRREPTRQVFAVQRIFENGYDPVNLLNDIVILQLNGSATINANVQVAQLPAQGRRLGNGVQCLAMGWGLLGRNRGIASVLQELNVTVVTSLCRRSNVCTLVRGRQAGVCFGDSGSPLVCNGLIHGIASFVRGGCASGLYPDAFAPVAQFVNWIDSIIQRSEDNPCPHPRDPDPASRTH
Put plainly: Inhibition of human polymorphonuclear leukocyte elastase via hydrolysis of Boc-AAPAN or Boc-AAPVN. Format: biochemical. The conditions noted are these: pH 7.5, Table I; second order rate constant for inactivation of the enzyme; read-out: Kobs /[I]. Here is the method:
Enzyme Assays for the Inhibition of Human Polymorphonuclear Leukocyte Elastase Via Hydrolysis of N-t-Boc-alanyl-alanyl-prolylalanine-p-nitroanilide (Boc-AAPAN) or […] (Boc-AAPVN) Reagent:
0.05M TES (N-tris[hydroxymethyl]methyl-2-amino-ethanesulfonic acid) Buffer, pH 7.5.
0.2 mM Boc-AAPAN or Boc-AAPVN.
To prepare substrate, the solid was first dissolved in 10.0 ml DMSO. Buffer at pH 7.5 was then added to a final volume of 100 ml.
Crude extract of human polymorphonuclear leukocytes (PMN) containing elastase activity.
Inhibitors (azetidinones) to be tested dissolved in DMSO just before use.
To 1.0 ml of 0.2 mM Boc-AAPAN in a cuvette, 0.01-0.1 ml of DMSO with or without inhibitor was added. After mixing, a measurement was taken at 410 mμ to detect any spontaneous hydrolysis due to presence of test compound. 0.05 Milliliters of PMN extract was then added and the ΔOD/min at 410 mμ was measured and recorded. Beckman model 35 spectrophotometer was used.
Results in Tables I to III were reported as ID50, effective dosage in micrograms per milliliter (μg/ml) for 50% inhibition of the enzyme activity 2 minutes after zero time.
Results were also expressed as Ki, the micromolar concentration of the inhibitor (μM) giving 50% of the control enzyme activity; or as ^k obs/I which is the second order rate constant in per mole per second for inactivation of the enzyme.
The elastase activity in the crude PMN extract may vary from one preparation to another. A control of each new batch is run, and the volume added in the assay procedure is adjusted according to activity.
On to `CCC[C@@H](NC(=O)N1C(=O)C(CC)(CC)[C@@H]1Oc1ccc(CN(C)CCOC(=O)N2CCOCC2)cc1)c1ccc(C)cc1`, for which the kinact/KI amounted to 1.4e+06 M⁻¹ s⁻¹.

For `CCC[C@@H](NC(=O)N1C(=O)C(CC)(CC)[C@@H]1Oc1ccc(CN(C)CC2CCCCO2)cc1)c1ccc(C)cc1` (some centres unmarked), the kinact/KI is 900000 M⁻¹ s⁻¹.

Take `CCC[C@@H](NC(=O)N1C(=O)C(CC)(CC)[C@@H]1Oc1ccc(CN2CCC[C@@H]2CO)cc1)c1ccc(C)cc1`: the kinact/KI stood at 725000 M⁻¹ s⁻¹.

On to `CCC[C@@H](NC(=O)N1C(=O)C(CC)(CC)[C@@H]1Oc1ccc(CN2CCC[C@H]2COC)cc1)c1ccc(C)cc1`, for which the kinact/KI was determined as 1.55e+06 M⁻¹ s⁻¹.

For the compound `CCC[C@@H](NC(=O)N1C(=O)C(CC)(CC)[C@@H]1Oc1ccc(CN2CCN(c3ncccn3)CC2)cc1)c1ccc(C)cc1`, the kinact/KI was determined as 715000 M⁻¹ s⁻¹.

With `CCC[C@@H](NC(=O)N1C(=O)C(CC)(CC)[C@@H]1Oc1ccc(CN2CCN(C(=O)OC)CC2)cc1)c1ccc(C)cc1`, the kinact/KI amounted to 730000 M⁻¹ s⁻¹.

In the case of `CCC[C@@H](NC(=O)N1C(=O)C(CC)(CC)[C@@H]1Oc1ccc(CN2CCN(C(=O)C(C)C)CC2)cc1)c1ccc(C)cc1`, the kinact/KI worked out at 1.6e+06 M⁻¹ s⁻¹.

As for `CCC[C@@H](NC(=O)N1C(=O)C(CC)(CC)[C@@H]1Oc1ccc(CN2CCN(C(=O)N(CC)CC)CC2)cc1)c1ccc(C)cc1`, the kinact/KI was determined as 1.4e+06 M⁻¹ s⁻¹.

As to `CCC[C@@H](NC(=O)N1C(=O)C(CC)(CC)[C@@H]1Oc1ccc(C(COC)N2CCCC2)cc1)c1ccc(C)cc1` (mixture of isomers) [R4+R5=--CH2 CH2 CH2 CH2 --; R6=CH2 OMe, 3,3-Diethyl-1-[(R)-α-(n-propyl)-4-(methyl)benzylaminocarbonyl]-4-(S)-[4-{1-(RS)-(1-pyrrolidino)-2-methoxyethyl}phenoxy]azetidin-2-one], the kinact/KI was 1.7e+06 M⁻¹ s⁻¹.

With `CCC[C@@H](NC(=O)N1C(=O)C(CC)(CC)[C@@H]1Oc1ccc(C2CCCN2CCOC)cc1)c1ccc(C)cc1` (mixture of isomers) [R4=CH2 CH2 OMe; R5+R6=--CH2 CH2 CH2 --, 3,3-Diethyl-1-[(R)-α-(n-propyl)-4-(methyl)benzylaminocarbonyl]-4-(S)-[4-{2-(RS)-(N-(2-methoxyethyl)pyrrolidino)}phenoxy]azetidin-2-one], the kinact/KI came to 940000 M⁻¹ s⁻¹.

Consider `CCC[C@@H](NC(=O)N1C(=O)C(CC)(CC)[C@@H]1Oc1ccc(C(COC)N(CC)CC)cc1)c1ccc(C)cc1` (mixture of isomers) [R4=Et; R5=Et; R6=CH2 OMe, 3,3-Diethyl-1-[(R)-α-(n-propyl)-4-(methyl)benzylaminocarbonyl]-4-(S)-[4-{1-(RS)-(N,N-diethylamino)-2-methoxyethyl}phenoxy]azetidin-2-one], for which the kinact/KI was found to be 1.1e+06 M⁻¹ s⁻¹.

Consider `CCC[C@@H](NC(=O)N1C(=O)C(CC)(CC)[C@@H]1Oc1ccc(C(COC)N(C)CC)cc1)c1ccc(C)cc1` (mixture of isomers) [R4=Me; R5=Et; R6=CH2 OMe, 3,3-Diethyl-1-[(R)-α-(n-propyl)-4-(methyl)benzylaminocarbonyl]-4-(S)-[4-{1-(RS)-(N-ethyl-N-(methyl)amino)2-methoxyethyl}-phenoxy]azetidin-2-one], for which the kinact/KI is 1e+06 M⁻¹ s⁻¹.

Turning to `CCC[C@@H](NC(=O)N1C(=O)C(CC)(CC)[C@@H]1Oc1ccc(C(COC)N(C)C)cc1)c1ccc(C)cc1` (mixture of isomers) [R4=Me; R5=Me; R6=CH2 OMe, 3,3-Diethyl-1-[(R)-α-(n-propyl)-4-(methyl)benzylaminocarbonyl]-4-(S)-[4-{1-(RS)-(N,N-dimethylamino)-2-methoxyethyl}phenoxy]azetidin-2-one], the kinact/KI stood at 1.28e+06 M⁻¹ s⁻¹.

Take `CCC[C@@H](NC(=O)N1C(=O)C(CC)(CC)[C@@H]1Oc1ccc(C(COC)N(C)CCC)cc1)c1ccc(C)cc1` (mixture of isomers) [R4=Me; R5=n-Pr; R6=CH2 OMe, 3,3-Diethyl-1-[(R)-α-(n-propyl)-4-(methyl)benzylaminocarbonyl]-4-(S)-[4-{1-(RS)-(N-(n-propyl)-N-(methyl)amino)-2-methoxyethyl}phenoxy]azetidin-2-one]: the kinact/KI came out at 1.5e+06 M⁻¹ s⁻¹.

Take `CCC[C@@H](NC(=O)N1C(=O)C(CC)(CC)[C@@H]1Oc1ccc(C(C)N2CCC[C@H]2COC)cc1)c1ccc(C)cc1` (single isomer, unassigned) [R4+R5=--CH2 CH2 CH2 CH(S--CH2 OMe)--; R6=Me (isomer A)]: the kinact/KI amounted to 960000 M⁻¹ s⁻¹.

The same assay, now with this note: pH 7.5, Table III; second order rate constant for inactivation of the enzyme; read-out: Kobs /[I].
Regarding `CCC[C@@H](NC(=O)N1C(=O)C(CC)(CC)[C@@H]1Oc1ccc(CN(CCOC)CCOC)c(Cl)c1)c1ccc(C)cc1`, the kinact/KI was found to be 1e+06 M⁻¹ s⁻¹.

Consider `CCC[C@@H](NC(=O)N1C(=O)C(CC)(CC)[C@@H]1Oc1ccc(CN(CC)CCOCCOC)c(OC)c1)c1ccc(C)cc1`, for which the kinact/KI is 1.7e+06 M⁻¹ s⁻¹.

Regarding `CCC[C@@H](NC(=O)N1C(=O)C(CC)(CC)[C@@H]1Oc1ccc(CN(CC)CCOC)c(Cl)c1)c1ccc(C)cc1`, the kinact/KI was 550000 M⁻¹ s⁻¹.

`CCC[C@@H](NC(=O)N1C(=O)C(CC)(CC)[C@@H]1Oc1ccc(CN(CC)CCOC)c(C)c1)c1ccc(C)cc1`: the kinact/KI came out at 450000 M⁻¹ s⁻¹.

In the case of `CCC[C@@H](NC(=O)N1C(=O)C(CC)(CC)[C@@H]1Oc1ccc(CN(CC)C(C)COC)c(C)c1)c1ccc(C)cc1` (some centres unmarked), the kinact/KI worked out at 400000 M⁻¹ s⁻¹.

`CCC[C@@H](NC(=O)N1C(=O)C(CC)(CC)[C@@H]1Oc1ccc(CN(CC)C(C)COC)c(OC)c1)c1ccc(C)cc1` (some centres unmarked): the kinact/KI was determined as 1.3e+06 M⁻¹ s⁻¹.

For the compound `CCC[C@@H](NC(=O)N1C(=O)C(CC)(CC)[C@@H]1Oc1cc(C)c(CN(C)CCOC)c(C)c1)c1ccc(C)cc1`, the kinact/KI is 300000 M⁻¹ s⁻¹.

Take `CCC[C@@H](NC(=O)N1C(=O)C(CC)(CC)[C@@H]1Oc1ccc(CN(C)CCOC)c(Cl)c1)c1ccc(C)cc1`: the kinact/KI turned out to be 1e+06 M⁻¹ s⁻¹.

On to `CCC[C@@H](NC(=O)N1C(=O)C(CC)(CC)[C@@H]1Oc1ccc(CN(C)CCOC)c(C)c1)c1ccc(C)cc1`, for which the kinact/KI amounted to 540000 M⁻¹ s⁻¹.

Consider `CCC[C@@H](NC(=O)N1C(=O)C(CC)(CC)[C@@H]1Oc1ccc(CN(C)C(C)COC)c(Cl)c1)c1ccc(C)cc1` (some centres unmarked), for which the kinact/KI turned out to be 650000 M⁻¹ s⁻¹.

`CCC[C@@H](NC(=O)N1C(=O)C(CC)(CC)[C@@H]1Oc1ccc(CN(C)C(C)COC)c(OC)c1)c1ccc(C)cc1` (some centres unmarked): the kinact/KI was determined as 1.65e+06 M⁻¹ s⁻¹.

Turning to `CCC[C@@H](NC(=O)N1C(=O)C(CC)(CC)[C@@H]1Oc1ccc(CN(CC)CCOC)cc1)c1ccc(OCC)cc1`, the kinact/KI came to 1.12e+06 M⁻¹ s⁻¹.

As to `CCC[C@@H](NC(=O)N1C(=O)C(CC)(CC)[C@@H]1Oc1ccc(CN(C)CCOC)cc1)c1ccc(OCC)cc1`, the kinact/KI was found to be 1.3e+06 M⁻¹ s⁻¹.

`CCC[C@@H](NC(=O)N1C(=O)C(CC)(CC)[C@@H]1Oc1ccc(CN(CC)CCOC)cc1)c1ccc(OC)cc1`: the kinact/KI amounted to 1e+06 M⁻¹ s⁻¹.

Consider `CCC[C@@H](NC(=O)N1C(=O)C(CC)(CC)[C@@H]1Oc1ccc(CN(C)CCOC)cc1)c1ccc(OC)cc1`, for which the kinact/KI was 900000 M⁻¹ s⁻¹.

As for `CCC[C@@H](NC(=O)N1C(=O)C(CC)(CC)[C@@H]1Oc1ccc(CN(CC)CCOC)cc1)c1ccc2c(c1)OCO2`, the kinact/KI is 1.9e+06 M⁻¹ s⁻¹.

Regarding `CCC[C@@H](NC(=O)N1C(=O)C(CC)(CC)[C@@H]1Oc1ccc(CN(CC)C(C)COC)cc1)c1ccc2c(c1)OCO2` (some centres unmarked), the kinact/KI stood at 1.6e+06 M⁻¹ s⁻¹.

In the case of `CCC[C@@H](NC(=O)N1C(=O)C(CC)(CC)[C@@H]1Oc1ccc(CNC2CC2)cc1)c1ccc2c(c1)OCO2`, the kinact/KI was found to be 1.6e+06 M⁻¹ s⁻¹.

On to `CCC[C@@H](NC(=O)N1C(=O)C(CC)(CC)[C@@H]1Oc1ccc(CN(CC)CCOC)cc1)c1ccc2occc2c1`, for which the kinact/KI is 1.1e+06 M⁻¹ s⁻¹.

Turning to `CCC[C@@H](NC(=O)N1C(=O)C(CC)(CC)[C@@H]1Oc1ccc(CN(CC)C(C)COC)cc1)c1ccc2occc2c1` (some centres unmarked), the kinact/KI is 1.05e+06 M⁻¹ s⁻¹.

As for `CCC[C@@H](NC(=O)N1C(=O)C(CC)(CC)[C@@H]1Oc1ccc(C(COC)N(C)C)cc1)c1ccc2c(c1)OCO2` (mixture of isomers) [3,3-Diethyl-1-[(R)-α-(n-propyl)-(3,4-dioxomethylene)benzylaminocarbonyl]-4-(S)-[4-{1-(RS)-(N,N-dimethylamino)-2-methoxyethyl}phenoxy]azetidin-2-one], the kinact/KI was determined as 1.9e+06 M⁻¹ s⁻¹.

`CCC[C@@H](NC(=O)N1C(=O)C(CC)(CC)[C@@H]1Oc1ccc(C(COC)N(C)CCC)cc1)c1ccc2c(c1)OCO2` (mixture of isomers) [3,3-Diethyl-1-[(R)-α-(n-propyl)-(3,4-dioxomethylene)benzylaminocarbonyl]-4-(S)-[4-{1-(RS)-(N-(n-propyl)-N-(methyl)amino)-2-methoxyethyl}phenoxy]azetidin-2-one]: the kinact/KI came to 1.8e+06 M⁻¹ s⁻¹.

Consider `CCC[C@@H](NC(=O)N1C(=O)C(CC)(CC)[C@@H]1Oc1ccc(C(COC)N(C)CC)cc1)c1ccc2c(c1)OCO2` (mixture of isomers) [3,3-Diethyl-1-[(R)-α-(n-propyl)-(3,4-dioxomethylene)benzylaminocarbonyl]-4-(S)-[4-{1-(RS)-(N-ethyl-N-(methyl)amino)-2-methoxyethyl}phenoxy]azetidin-2-one], for which the kinact/KI stood at 1.65e+06 M⁻¹ s⁻¹.
